Data reported in patent publication US8877715B2, “Cytotoxic conjugates having neuropeptide Y receptor binding compound” (priority 2009, dated 2014).

Legend:
NPY-Y2 receptor = target: T1, NPY-Y2 receptor (Homo sapiens, UniProt P49146); assay: In vitro radioligand NPY-Y2 receptor binding assay ([125I]PYY, SK-N-BE2 cell membranes); settings: [125I]PYY displacement
T1 construct: the appropriate cells (SK-N-MC for NPY-Y1; host or cells: SK-N-BE2 human neuroblastoma cells (membrane homogenate)
T1 sequence (P49146 1-381): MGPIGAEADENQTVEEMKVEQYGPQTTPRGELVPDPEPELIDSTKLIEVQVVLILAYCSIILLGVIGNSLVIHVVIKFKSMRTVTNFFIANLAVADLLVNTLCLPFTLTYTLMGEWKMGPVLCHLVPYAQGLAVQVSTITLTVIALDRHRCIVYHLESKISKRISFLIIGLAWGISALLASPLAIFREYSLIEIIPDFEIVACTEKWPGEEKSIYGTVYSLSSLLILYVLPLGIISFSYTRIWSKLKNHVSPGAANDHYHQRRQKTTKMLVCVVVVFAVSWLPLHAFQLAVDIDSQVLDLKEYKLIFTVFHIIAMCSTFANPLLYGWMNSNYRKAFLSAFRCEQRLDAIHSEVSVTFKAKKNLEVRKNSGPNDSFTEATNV
Protocol: In Vitro Radioligand NPY-Y1 and NPY-Y2 Receptor Binding Assays
Human neuroblastoma cell lines, SK-N-MC and SK-N-BE2 (American Type Culture Collection, Rockville, Md., USA), expressing the NPY-Y1 and NPY-Y2 receptors, respectfully, were cultured in EMEM containing 10% fetal calf serum and 5% chicken embryo extract, maintained at 37° C. in a humidified atmosphere of and 95% air and 5% CO2.
For the in vitro NPY-Y1 and NPY-Y2 radioligand binding assays, the appropriate cells (SK-N-MC for NPY-Y1; SK-N-BE2 for NPY-Y2) were harvested and then homogenized in 20 ml of ice-cold 50 mM Tris-HCl with a Brinkman Polytron (Westbury, N.Y., USA) (setting 6, 15 sec). The homogenates were washed twice by centrifugation (39,000 g/10 min), and the final pellets were resuspended in 50 mM Tris-HCl, containing 2.5 mM MgCl2, 0.1 mg/ml bacitracin (Sigma Chemical, St. Louis, Mo., USA), and 0.1% BSA.

[1] = test system: Human MCF-7 breast carcinoma cells; assay: In vivo growth assay, MCF-7 xenograft (Study A and Study B); design: species or system nude mice; settings: Study A
Protocol: Once-weekly treatments were administered for three weeks by tail vein injection except in cases where poor drug solubility or tail necrosis necessitated intraperitoneal injections. […] Example 93 was evaluated in Study B at 55.45 mg/kg, 110.9 mg/kg and 221.8 mg/kg. Antitumor activity was assessed by tumor growth delay (“TGD”) defined as the difference in median time to endpoint tumor size in a treatment group compared to the control group, and by tumor growth inhibition (“TGI”) defined as the difference between median tumor volumes of the treatment and control groups on a study day providing a balance between measurable group responses and large group sizes. Toxicity was evaluated by body weight measurements and clinical observations.
Female nude mice (nu/nu, Harlan) were 10-11 weeks old and had body weight ranges of
The animals were fed ad libitum water (reverse osmosis, 1 ppm Cl) and NIH 31 Modified and Irradiated Lab Diet® consisting of 18.0% crude protein, 5.0% crude fat, and 5.0% crude fiber. The mice were housed on irradiated ALPHA-Dri® Bed-o′ Cobs® Laboratory Animal Bedding in static microisolators on a 12-hour light cycle at 21-22° C.
Human MCF-7 breast carcinoma cells were maintained in RPMI 1640 medium containing 100 units/mL penicillin G sodium, 100 μg/mL streptomycin sulfate, and 25 μg/mL gentamicin. The medium was supplemented with 10% heat-inactivated fetal bovine serum and 2 mM glutamine. Additional buffering was provided with 10 mM HEPES and 0.075% sodium bicarbonate. The tumor cells were cultured in tissue culture flasks in a humidified incubator at 37° C. in an atmosphere of 95% air and 5% CO2.
Three to seven days prior to cell injection, a pellet containing 17-β-estradiol (0.36 mg, 60-day release, Innovative Research of America) was implanted subcutaneously between the scapulae of each mouse.
The MCF-7 tumor cells used for implantation were harvested during log phase growth and resuspended in phosphate-buffered saline at 5×10^7 cells/mL. […] Tumors were monitored twice weekly and then daily as their volumes approached 80-120 mm^3. […] Thus, a separate study (“Study B”) was set up comprising six groups (n=10) of animals. In this study, 17 days elapsed between cell implantation and group assignment. […] Tumor size, in mm^3, was calculated from:
[formula] where w=width and l=length in mm of the MCF-7 tumor. Tumor weight may be estimated with the assumption that 1 mg is equivalent to 1 mm^3 of tumor volume.
Example 93 dosing solutions were prepared fresh in 0.1N acetic acid for each day of treatment.
Camptothecin (Lot No. 034K3648, Sigma) stock solutions were made from 60% DMA and 40% Tween 80 and stored at room temperature during the study. Dosing solutions were prepared fresh on each day of dosing by diluting the stocks 1:20 in saline.
The treatment plans are summarized in Table 3A for Study A and Table 3B for Study B.
All treatments and vehicles were given once-weekly for three doses (“qwk×3”). Group 1 mice received no gavage and no injections, and served as a control for tumor progression and estrogen toxicity. Group 2 animals received vehicle.
Each treatment dose was administered in a volume of 0.2 mL per 20 g of body weight, and was scaled to the body weight of the animal.
Median tumor growth curves of FIGS. 1-3 show median tumor volumes as a function of time. When an animal exited the study due to tumor size, the final tumor volume recorded for the animal was included with the data used to calculate the group median tumor volume at subsequent time points. Curves were truncated after 50% of animals in a group had exited the study.

[camptothecin-rvD/Lasp-Suc-Tyr^1, Nle^17, 4Hyp^34]hNPY(1-36)-NH2 [Example 92/92A]
Ki (NPY-Y2 receptor): > 1000 nM

[camptothecin-rvD-Asp-Suc-Tyr^1, Nle^17, 4Hyp^34]hNPY(1-36)-NH2 [Example 92]
tumor growth inhibition (TGI) ([1]; Day 18): dose-related, significantly so at 110.6 and 221.2 mg/kg, and of potential therapeutic value at the higher dose level
mean tumor volume ([1]; G 7: 55.3 mg/kg qwk x 3, D 1): 124.1 mm^3
mean tumor volume ([1]; G 7: 55.3 mg/kg qwk x 3, D 4): 112.3 mm^3
mean tumor volume ([1]; G 7: 55.3 mg/kg qwk x 3, D 7): 139.2 mm^3
mean tumor volume ([1]; G 7: 55.3 mg/kg qwk x 3, D 11): 168.4 mm^3
mean tumor volume ([1]; G 7: 55.3 mg/kg qwk x 3, D 14): 250.9 mm^3
mean tumor volume ([1]; G 7: 55.3 mg/kg qwk x 3, D 18): 242.9 mm^3
mean tumor volume ([1]; G 7: 55.3 mg/kg qwk x 3, D 21): 262.5 mm^3
mean tumor volume ([1]; G 7: 55.3 mg/kg qwk x 3, D 25): 385.9 mm^3
mean tumor volume ([1]; G 7: 55.3 mg/kg qwk x 3, D 28): 505.1 mm^3
mean tumor volume ([1]; G 7: 55.3 mg/kg qwk x 3, D 32): 532.2 mm^3
mean tumor volume ([1]; G 7: 55.3 mg/kg qwk x 3, D 35): 631 mm^3
mean tumor volume ([1]; G 7: 55.3 mg/kg qwk x 3, D 39): 978 mm^3
mean tumor volume ([1]; G 8: 110.6 mg/kg qwk x 3, D 1): 124.1 mm^3
mean tumor volume ([1]; G 8: 110.6 mg/kg qwk x 3, D 4): 130.8 mm^3
mean tumor volume ([1]; G 8: 110.6 mg/kg qwk x 3, D 7): 127.5 mm^3
mean tumor volume ([1]; G 8: 110.6 mg/kg qwk x 3, D 11): 146 mm^3
mean tumor volume ([1]; G 8: 110.6 mg/kg qwk x 3, D 14): 184.6 mm^3
mean tumor volume ([1]; G 8: 110.6 mg/kg qwk x 3, D 18): 187.9 mm^3
mean tumor volume ([1]; G 8: 110.6 mg/kg qwk x 3, D 21): 216.2 mm^3
mean tumor volume ([1]; G 8: 110.6 mg/kg qwk x 3, D 25): 337.3 mm^3
mean tumor volume ([1]; G 8: 110.6 mg/kg qwk x 3, D 28): 439.6 mm^3
mean tumor volume ([1]; G 8: 110.6 mg/kg qwk x 3, D 32): 454.8 mm^3
mean tumor volume ([1]; G 8: 110.6 mg/kg qwk x 3, D 35): 550.5 mm^3
mean tumor volume ([1]; G 8: 110.6 mg/kg qwk x 3, D 39): 938 mm^3
mean tumor volume ([1]; G 9: 221.2 mg/kg qwk x 3, D 1): 124.1 mm^3
mean tumor volume ([1]; G 9: 221.2 mg/kg qwk x 3, D 4): 118.3 mm^3
mean tumor volume ([1]; G 9: 221.2 mg/kg qwk x 3, D 7): 118.9 mm^3
mean tumor volume ([1]; G 9: 221.2 mg/kg qwk x 3, D 11): 118.8 mm^3
mean tumor volume ([1]; G 9: 221.2 mg/kg qwk x 3, D 14): 109.4 mm^3
mean tumor volume ([1]; G 9: 221.2 mg/kg qwk x 3, D 18): 129.5 mm^3
mean tumor volume ([1]; G 9: 221.2 mg/kg qwk x 3, D 21): 150.1 mm^3
mean tumor volume ([1]; G 9: 221.2 mg/kg qwk x 3, D 25): 172.2 mm^3
mean tumor volume ([1]; G 9: 221.2 mg/kg qwk x 3, D 28): 197.7 mm^3
mean tumor volume ([1]; G 9: 221.2 mg/kg qwk x 3, D 32): 213.8 mm^3
mean tumor volume ([1]; G 9: 221.2 mg/kg qwk x 3, D 35): 301.7 mm^3
mean tumor volume ([1]; G 9: 221.2 mg/kg qwk x 3, D 39): 372 mm^3
tumor regressions ([1]; highest dose level (222.6 or 221.2 mg/kg), TGD-evaluated sample): 3/5
tumor growth delay (TGD) ([1]; three dose levels, qwk x 3): dose-related TGD, reaching statistical significance

[Camptothecin-rvD/L-Asp-Suc-Tyr^1, Nle^17, A6c^31, 4Hyp^34]hNPY(1-36)-NH2 [93/93A]
Ki (NPY-Y2 receptor): > 1000 nM
